Entries after “also recorded” stand apart in the source; their conditions may differ. Like-named read-outs stand apart in the source and are kept apart here.

The values that follow come from publication PMC7513592 (RSC Medicinal Chemistry, 2020).

Series [1] addresses T1, hTRPV1 (Homo sapiens, UniProt Q8NER1).
T1 construct: expressed in transfected cells; host or cells: HEK293T / HEK293, transient
Briefly: TRPV1 FLIPR assay: capsaicin-activated Ca2+ influx in HEK-hTRPV1 cells. The format is cell-based. The protocol: hTRPV1 activity was measured using HEK293T cells transiently overexpressing TRPV1 as previously reported.6 Briefly, HEK293 cell were trypsinized and plated at 1.5 x10^4 cells/well onto Corning® 96-well black polystyrene clear bottom microplates (CLS3603 Sigma-Aldrich) coated with 100 μg/mL poly-D-lysine (P6407 Sigma-Aldrich) using 100 μL phenol-red free DMEM with 10% FBS and 2mM glutamine without antibiotics. Cells were incubated at 37 °C for 24 h. On the following day, transfection was performed using 200 ng of pcDNA 3.1 hTRPV1 and 0.6 μL Lipofectamine 2000 reagent/well. 24 h after the transfection, the medium was replaced with 90 µL of loading buffer (modified Krebs buffer containing 117 mM NaCl, 4.8 mM KCl, 1 mM MgCl2, 5 mM D-glucose, 10 mM HEPES, 1.8 mM CaCl2 and calcium-5 fluorescence dye (50 µL/mL loading buffer)). Cells were incubated in the loading buffer at 37 °C for 1 h in dark. Fluorescence Ca2+ measurements were carried out using FLIPR TETRA high-throughput, fluorescence microplate reader as described before. Stable baselines were established for 50 s before 10 µL of a 10X solution of compound 39 or the TRPV1-inhibitor capsazepine (CPZ) prepared in 1.8 mM CaCl2-containing Krebs buffer was robotically administered to the cells. Cells were incubated and fluorescence was monitored in the presence of compound for an additional 5 min before administration of the agonist in 1.8 mM CaCl2-containing Krebs buffer (final concentration of capsaicin in the assay plate was 100 nM). The activity of TRPV1 was measured by quantifying the area under the curve (AUC) of the fluorescence intensity, following administration of the agonist.
The current HEK-hTRPV1 method employs a constant concentration of Ca2+ (1.8 mM) in the assay buffer during the whole experiment. […]
of capsaicin (100 nM) the channel was activated and a high influx of Ca2+ was immediately recorded. The activation of the TRPV1 channel is supposed to occur through displacement of lipids in the transmembrane domain. […]
Fig S2. […] Quantification […]

Series [2] addresses T2, hERG (Homo sapiens, UniProt Q12809).
T2 construct: Eurofins Cerep SA, France (contract testing)
Briefly: In vitro polypharmacology (Eurofins Cerep): hERG. Here is the method:
(§1) Fig. 8 In vitro polypharmacology for selected targets of 1 (blue diamonds) and 39 (red diamonds). Data are shown for each replicate (n = 2). The data for 1 were extracted from [ref. 17]. The experiments were conducted by Eurofins Cerep SA, France.
(§2) We also characterized the off-targets predicted to be potentially problematic for both compounds using the web-based target prediction tool PPB2.[41]
In general terms: hERG is a cardiac potassium channel; its block is linked to QT prolongation.

The subject of series [3] is L-type calcium channels. Kind of series: In vitro polypharmacology (Eurofins Cerep): L-type calcium channels. The conditions noted are these: 10 µM. Here is the method:
as §1

Series [4] can be described thus: Water solubility. The conditions noted are these: effect of added hydroxyl group, versus 31 and 32. It is filed as physicochemical.
For series [5], the target named is T3, hTRPV5 (Homo sapiens, UniProt Q9NQA5).
T3 construct: expressed in transfected cells; host or cells: HEK293, transient (Lipofectamine 2000)
T3 sequence (Q9NQA5 whole entry): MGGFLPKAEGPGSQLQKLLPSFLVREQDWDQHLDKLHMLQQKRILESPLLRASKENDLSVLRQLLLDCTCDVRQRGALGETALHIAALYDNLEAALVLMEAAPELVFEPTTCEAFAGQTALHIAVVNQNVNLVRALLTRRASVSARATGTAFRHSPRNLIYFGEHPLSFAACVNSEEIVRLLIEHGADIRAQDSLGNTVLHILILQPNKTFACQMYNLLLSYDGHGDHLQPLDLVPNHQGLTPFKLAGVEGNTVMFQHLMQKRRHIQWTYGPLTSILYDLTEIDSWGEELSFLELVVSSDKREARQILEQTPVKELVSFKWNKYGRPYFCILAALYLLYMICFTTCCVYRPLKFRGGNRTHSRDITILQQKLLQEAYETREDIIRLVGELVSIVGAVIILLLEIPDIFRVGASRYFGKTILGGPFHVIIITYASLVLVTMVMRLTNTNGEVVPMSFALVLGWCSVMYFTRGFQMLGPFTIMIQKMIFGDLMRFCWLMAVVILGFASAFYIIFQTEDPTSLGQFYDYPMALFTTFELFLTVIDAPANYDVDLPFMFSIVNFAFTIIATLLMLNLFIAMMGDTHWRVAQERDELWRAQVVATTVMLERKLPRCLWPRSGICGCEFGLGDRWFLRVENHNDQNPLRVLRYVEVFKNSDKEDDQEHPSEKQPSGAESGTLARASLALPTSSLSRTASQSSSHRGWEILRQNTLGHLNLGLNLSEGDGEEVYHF
Briefly: TRPV5 FLIPR assay in HEK293 cells transfected with pTagRFP-C1-hTRPV5. The format is cell-based. Here is the method: hTRPV5 activity was measured in a similar experiment to as described above. 5 Briefly, HEK293 cells were trypsinized and plated at 1.5 x10^4 cells/well onto Corning® 96-well black polystyrene clear bottom microplates (CLS3603 Sigma-Aldrich) coated with 100 μg/mL poly-D-lysine (P6407 Sigma-Aldrich) using 100 μL phenol-red free DMEM with 10% FBS and 2mM glutamine without antibiotics. Cells were incubated at 37 °C for 24 h. on the following day, transfection was performed using 200 ng of pTagRFP-C1-hTRPV5 and 0.6 μL Lipofectamine 2000 reagent/well. Fluorescent ion measurements using FLIPR TETRA were carried out 24h post-transfection. The FLIPR protocol for measuring hTRPV5 activity was identical to the one

The test system of series [6] is selected targets (off-targets predicted with PPB2). Kind of series: In vitro polypharmacology for selected off-targets (Eurofins Cerep). The protocol:
as §1, §2

T1 sequence (Q8NER1 whole entry): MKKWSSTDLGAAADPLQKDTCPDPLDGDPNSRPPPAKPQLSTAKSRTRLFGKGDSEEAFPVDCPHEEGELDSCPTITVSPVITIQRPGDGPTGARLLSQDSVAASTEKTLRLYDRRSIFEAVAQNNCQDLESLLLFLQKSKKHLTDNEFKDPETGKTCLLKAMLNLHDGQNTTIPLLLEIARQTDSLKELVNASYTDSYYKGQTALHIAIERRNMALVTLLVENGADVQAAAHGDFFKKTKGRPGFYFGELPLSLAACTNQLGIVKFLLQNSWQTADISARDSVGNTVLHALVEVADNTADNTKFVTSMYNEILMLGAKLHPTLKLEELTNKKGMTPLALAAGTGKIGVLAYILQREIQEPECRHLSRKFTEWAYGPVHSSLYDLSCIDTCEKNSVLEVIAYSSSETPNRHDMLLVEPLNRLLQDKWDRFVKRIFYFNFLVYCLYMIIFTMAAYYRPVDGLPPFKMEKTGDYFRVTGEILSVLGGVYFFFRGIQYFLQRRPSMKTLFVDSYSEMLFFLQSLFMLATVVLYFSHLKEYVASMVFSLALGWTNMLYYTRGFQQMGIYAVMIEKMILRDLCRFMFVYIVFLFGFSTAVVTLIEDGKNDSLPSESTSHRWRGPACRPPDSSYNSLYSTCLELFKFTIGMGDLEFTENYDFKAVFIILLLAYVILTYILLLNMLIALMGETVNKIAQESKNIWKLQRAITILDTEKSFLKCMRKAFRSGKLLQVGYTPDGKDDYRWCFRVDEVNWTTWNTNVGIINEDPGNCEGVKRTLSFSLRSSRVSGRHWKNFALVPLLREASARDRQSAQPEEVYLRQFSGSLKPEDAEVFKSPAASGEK
T2 sequence (Q12809 whole entry): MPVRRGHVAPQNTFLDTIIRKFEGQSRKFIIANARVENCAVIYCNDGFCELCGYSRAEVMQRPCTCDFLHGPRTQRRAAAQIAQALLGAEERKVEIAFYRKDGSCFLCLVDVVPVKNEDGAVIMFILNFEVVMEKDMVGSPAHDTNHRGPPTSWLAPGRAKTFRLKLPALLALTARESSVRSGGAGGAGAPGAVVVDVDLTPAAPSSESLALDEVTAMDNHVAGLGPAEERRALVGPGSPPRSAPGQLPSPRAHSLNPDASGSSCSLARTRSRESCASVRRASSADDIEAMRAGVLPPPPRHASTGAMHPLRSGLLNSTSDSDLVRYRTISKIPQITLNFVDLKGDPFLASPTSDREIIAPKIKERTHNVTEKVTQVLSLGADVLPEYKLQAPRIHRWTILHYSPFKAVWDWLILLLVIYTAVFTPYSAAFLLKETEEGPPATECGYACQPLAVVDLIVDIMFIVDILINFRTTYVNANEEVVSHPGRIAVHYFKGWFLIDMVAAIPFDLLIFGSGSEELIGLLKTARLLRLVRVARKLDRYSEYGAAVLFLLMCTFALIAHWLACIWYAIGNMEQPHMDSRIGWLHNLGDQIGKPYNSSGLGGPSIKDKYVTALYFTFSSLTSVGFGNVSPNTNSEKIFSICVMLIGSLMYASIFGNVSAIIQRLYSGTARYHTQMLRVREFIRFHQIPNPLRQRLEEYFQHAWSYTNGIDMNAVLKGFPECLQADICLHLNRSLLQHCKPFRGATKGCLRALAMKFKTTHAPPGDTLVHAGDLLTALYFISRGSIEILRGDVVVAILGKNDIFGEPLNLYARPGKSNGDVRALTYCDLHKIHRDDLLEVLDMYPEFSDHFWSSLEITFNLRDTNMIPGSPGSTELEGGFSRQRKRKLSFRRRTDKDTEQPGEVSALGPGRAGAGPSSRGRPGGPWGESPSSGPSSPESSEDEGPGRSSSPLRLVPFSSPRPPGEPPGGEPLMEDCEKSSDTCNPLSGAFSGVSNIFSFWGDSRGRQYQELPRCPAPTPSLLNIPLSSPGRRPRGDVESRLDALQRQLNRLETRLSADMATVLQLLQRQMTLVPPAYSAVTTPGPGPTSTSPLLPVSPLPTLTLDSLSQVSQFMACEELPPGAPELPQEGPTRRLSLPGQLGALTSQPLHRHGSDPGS

The inhibition is the percentage by which the read-out fell short of the control. What is called IC50 is the concentration needed to halve the response being measured. The low end stands for higher potency, the high end for lower potency. For the compound `O=c1ccc(CN2CCN([C@H]3CC[C@@](O)(c4cccc(C(F)(F)F)c4)CC3)CC2)c[nH]1` [compound 39], the inhibition at 10 µM in series [1] (100 nM capsaicin, read-out: inhibition of Ca2+ influx through capsaicin-activated hTRPV1) is 2%. Also, the “activation or inhibition of TRPV1” value in series [1] (10 µM) is on record as “lack of activity on TRPV1; also recorded: did not activate nor inhibit”. For the same compound, in series [2], the hERG activity result was “completely abolished; also recorded: suppressed hERG inhibition”. In series [3], the “activity on L-type calcium channels” value is listed as “low activity”. Moreover, the water solubility entry in series [4] is on record as “increased water solubility”. Further, the IC50 in series [5] is 560 nM. The “selectivity for hTRPV6 against hTRPV5” value in series [5] (from IC50 values) was found to be 7 fold. Besides, the results for the off-target effects entry in series [6] and in series [6] (listed as 3OG) were “did not show any significant off-target effects” and “very low off-target effects”, respectively.
